Test results published in US20220378706A1, “PHARMACEUTICAL COMPOSITION COMPRISING PDE9 INHIBITOR” (Eisai R&D Management Co., Ltd., priority 2017, published 2022).

How the values were obtained:
[1] = test system: CSF cGMP; assay: Multiple ascending dose study: CSF cGMP; type: in vivo, human
Description: Four sequential cohorts of healthy participants (≥50 years and ≤85 years old) were treated with multiple ascending doses of Compound A up to the maximum tolerated dose (MTD). A total of 6 participants per cohort were randomized to Compound A. Proposed doses of Compound A were:
Compound A was administered orally with 240 milliliter (mL) (8 fluid ounces) of water. […]

[2] = test system: scopolamine-induced memory impairment in rats; assay: Scopolamine-induced memory impairment in rat novel object recognition test; type: in vivo; conditions: scopolamine 0.7 mg/kg i.p., mean ± SEM
Text: (Effects of Compound a Monomaleate Salt on Scopolamine-Induced Memory Impairment in Rat Novel Object Recognition Test)
The effects of orally administered Compound A monomaleate salt on scopolamine-induced memory impairment in a novel object recognition test in rats was examined.
Six-week-old male Long-Evans rats (Institute for Animal Reproduction) were used in this study. Before test day, rats were placed in each experimental apparatus once a day, on two consecutive days to habituate rats to the test chamber. […]
Following a 2-hour […] interval, a retention trial (T2) was conducted. […] Animal performance in T1 and T2 was recorded with a digital video camera, and the amount of time spent exploring each object was measured by manual stopwatches. […]
In novel object recognition test, the following novel object exploration ratio in T2 is considered as amnesic indexes reflecting the discrimination between the familiar and novel objects. These indexes are calculated according to the following formulas: […]
Data are expressed as the mean±SEM. The difference between the non-scopolamine treated control and scopolamine treated control groups were analyzed using unpaired t test. The effects of Compound A monomaleate salt on novel object exploration ratio in T2 was analyzed by one-way analysis of variance (ANOVA) followed by the Dunnett multiple comparison test. […]

[3] = Day 13, 5 mg QD oral, Parts A and D
[4] = Day 13, 10 mg QD oral, Parts A and D
[5] = Day 13, 25 mg QD oral, Parts A and D
[6] = Day 13, 50 mg QD oral, Parts A and D
[7] = Day 13, 100 mg QD oral, Parts A and D
[8] = Day 13, 200 mg QD oral, Parts A and D
[9] = Day 13, 400 mg QD oral Non-Japanese, Parts A and D

COc1ncc(C)c(-c2ccc3c(c2)[nH]c(=O)c2cnn([C@H]4CCOC4)c23)c1C [Compound A, (S)-7-(2-methoxy-3,5-dimethylpyridin-4-yl)-1-(tetrahydrofuran-3-yl)-1H-pyrazolo[4,3-c]quin olin-4(5H)-one]
CSF cGMP % Change from Baseline Mean [1, 3]: 33.162% | CSF cGMP % Change from Baseline Median [1, 3]: 29.954% | CSF cGMP Change from Baseline Mean [1, 3]: 0.491 µg/L | CSF cGMP Change from Baseline Median [1, 3]: 0.350 µg/L | CSF cGMP Mean [1, 3]: 1.964 µg/L | CSF cGMP Median [1, 3]: 1.730 µg/L | CSF cGMP % Change from Baseline Mean [1, 4]: 94.222% | CSF cGMP % Change from Baseline Median [1, 4]: 104.348% | CSF cGMP Change from Baseline Mean [1, 4]: 1.276 µg/L | CSF cGMP Change from Baseline Median [1, 4]: 1.390 µg/L | CSF cGMP Mean [1, 4]: 2.704 µg/L | CSF cGMP Median [1, 4]: 2.620 µg/L | CSF cGMP % Change from Baseline Mean [1, 5]: 170.369% | CSF cGMP % Change from Baseline Median [1, 5]: 183.494% | CSF cGMP Change from Baseline Mean [1, 5]: 2.058 µg/L | CSF cGMP Change from Baseline Median [1, 5]: 1.979 µg/L | CSF cGMP Mean [1, 5]: 3.283 µg/L | CSF cGMP Median [1, 5]: 3.225 µg/L | CSF cGMP % Change from Baseline Mean [1, 6]: 191.445% | CSF cGMP % Change from Baseline Median [1, 6]: 189.244% | CSF cGMP Change from Baseline Mean [1, 6]: 3.750 µg/L | CSF cGMP Change from Baseline Median [1, 6]: 3.260 µg/L | CSF cGMP Mean [1, 6]: 5.778 µg/L | CSF cGMP Median [1, 6]: 4.870 µg/L | CSF cGMP % Change from Baseline Mean [1, 7]: 260.350% | CSF cGMP % Change from Baseline Median [1, 7]: 258.784% | CSF cGMP Change from Baseline Mean [1, 7]: 4.352 µg/L | CSF cGMP Change from Baseline Median [1, 7]: 3.960 µg/L | CSF cGMP Mean [1, 7]: 6.066 µg/L | CSF cGMP Median [1, 7]: 5.420 µg/L | CSF cGMP % Change from Baseline Mean [1, 8]: 201.165% | CSF cGMP % Change from Baseline Median [1, 8]: 192.932% | CSF cGMP Change from Baseline Mean [1, 8]: 3.810 µg/L | CSF cGMP Change from Baseline Median [1, 8]: 3.755 µg/L | CSF cGMP Mean [1, 8]: 5.702 µg/L | CSF cGMP Median [1, 8]: 5.640 µg/L | CSF cGMP % Change from Baseline Mean [1, 9]: 198.283% | CSF cGMP % Change from Baseline Median [1, 9]: 191.646% | CSF cGMP Change from Baseline Mean [1, 9]: 3.302 µg/L | CSF cGMP Change from Baseline Median [1, 9]: 2.920 µg/L | CSF cGMP Mean [1, 9]: 4.945 µg/L | CSF cGMP Median [1, 9]: 4.370 µg/L | CSF cGMP % Change from Baseline Mean ([1]; Part C, 50 mg, Day 13): 229.107% | CSF cGMP % Change from Baseline Median ([1]; Part C, 50 mg, Day 13): 218.491% | CSF cGMP Change from Baseline Mean ([1]; Part C, 50 mg, Day 13): 3.206 µg/L | CSF cGMP Change from Baseline Median ([1]; Part C, 50 mg, Day 13): 3.065 µg/L | CSF cGMP Mean ([1]; Part C, 50 mg, Day 13): 4.620 µg/L | CSF cGMP Median ([1]; Part C, 50 mg, Day 13): 4.265 µg/L | CSF cGMP % Change from Baseline Mean ([1]; Part C, 50 mg, Day 41): 222.283% | CSF cGMP % Change from Baseline Median ([1]; Part C, 50 mg, Day 41): 182.044% | CSF cGMP Change from Baseline Mean ([1]; Part C, 50 mg, Day 41): 3.097 µg/L | CSF cGMP Change from Baseline Median ([1]; Part C, 50 mg, Day 41): 2.975 µg/L | CSF cGMP Mean ([1]; Part C, 50 mg, Day 41): 4.511 µg/L | CSF cGMP Median ([1]; Part C, 50 mg, Day 41): 4.650 µg/L | Novel object exploration ratio in T2 ([2]; 3.3 mg/kg oral): 68.5 ± 2.0 % | Novel object exploration ratio in T2 ([2]; 10 mg/kg oral): 68.5 ± 1.6 %
